The values below come from patent US20240374579A1, “BICYCLIC PGDH INHIBITORS AND METHODS OF MAKING AND USING” (EPIRIUM BIO INC., priority 2021, published 2024).

This experiment has as its target T1, 15-PGDH/HPGD (Homo sapiens, UniProt P15428).
T1 construct: purchased R&D System 5660-DH
T1 sequence (P15428 1-266): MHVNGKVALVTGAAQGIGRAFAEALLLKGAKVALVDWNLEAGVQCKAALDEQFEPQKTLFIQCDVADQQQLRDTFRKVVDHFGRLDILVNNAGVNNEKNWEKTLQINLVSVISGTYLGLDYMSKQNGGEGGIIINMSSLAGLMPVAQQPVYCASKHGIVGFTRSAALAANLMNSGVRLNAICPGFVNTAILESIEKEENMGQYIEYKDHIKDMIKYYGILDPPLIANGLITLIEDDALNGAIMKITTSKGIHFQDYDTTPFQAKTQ
Briefly: hPGDH inhibitor screening biochemical assay. Particulars: 10 nM enzyme, 15 μM PGE2, 0.25 mM NAD, fluorescence ex/em 340/485 nm. Here is the method:
A hydroxyprostaglandin dehydrogenase inhibition screening biochemical assay can be performed to assess the synthesized inhibitors provided herein. Provided herein is an exemplary biochemical assay for hPGDH inhibitor screening.
The in vitro biochemical assay can be performed in white, 384 plates in total 20 μl reaction volume consisting of 10 nM of 15-PGDH/HPGD (R&D System #5660-DH), 15 μM Prostaglandin E2 (Sigma, Cat #P5640-10MG) and 0.25 mM β-Nicotinamide adenine dinucleotide sodium salt (Sigma, Cat #N0632-5G) made in reaction buffer (50 mM Tris-HCl, pH 7.5, 0.01% Tween 20) at 10-point dose response curve for test/tool compounds. Briefly, 5 μl (4×) of compounds solution and 5 μl (final concentration, 10 nM) of enzyme solution is added to white 384 well plates and incubated for 10 mins at 37° C. 5 μl (4×) of Prostaglandin E2 and 5 μl (4×) of β-Nicotinamide adenine dinucleotide sodium salt is added to the wells and incubated for 10 mins at room temperature. Fluorescence is recorded at ex/em=340 nm/485 nm. The percentage ([…]) inhibition of enzyme activity was determined relative to positive control (1% DMSO) and IC50 was calculated using GraphPad prism software (four parameter-variable slope equation).
As usually defined, the IC50 is the concentration at which inhibition is half-maximal. `O=C(O)c1ccc(-n2nnc3cc(C(=O)N4CCC(F)(F)CC4)cnc32)cc1` [Compound C-1, 4-(6-(4,4-difluoropiperidine-1-carbonyl)-3H-[1,2,3]triazolo[4,5-b]pyridin-3-yl)benzoic acid] displayed an IC50 of less than 100 nM.
In the case of `O=C(O)c1ccc(-n2ncc3cc(C(=O)N4CCC(F)(F)CC4)cnc32)cc1` [Compound C-2, 4-(5-(4,4-difluoropiperidine-1-carbonyl)-1H-pyrazolo[3,4-b]pyridin-1-yl) benzoic acid] it was less than 100 nM.
Take `Cc1nc2cc(C(=O)N3CCC(F)(F)CC3)cnc2n1-c1ccc(C(=O)O)cc1` [Compound C-3, 4-(6-(4,4-difluoropiperidine-1-carbonyl)-2-methyl-3H-imidazo[4,5-b]pyridin-3-yl)benzoic acid]: the IC50 was less than 100 nM.
`O=C(c1cnc2c(cnn2-c2ccc(-c3ncn[nH]3)nc2)c1)N1CCC(F)(F)CC1` [Compound C-4] registered a half-inhibitory concentration (IC50) of less than 100 nM.
In turn, `O=C(c1cnc2c(c1)nnn2-c1ccc(-c2ncn[nH]2)nc1)N1CCC(F)(F)CC1` [Compound C-5, (3-(6-(1H-1,2,4-triazol-5-yl)pyridin-3-yl)-3H-[1,2,3]triazolo[4,5-b]pyridin-6-yl) (4,4-difluoropiperidin-1-yl)methanone] registered an IC50 of less than 100 nM.
In turn, `O=C(c1cnc2c(c1)nnn2-c1ccc(-c2ncn[nH]2)cc1)N1CCC(F)(F)CC1` [Compound C-7, (3-(4-(1H-1,2,4-triazol-5-yl)phenyl)-3H-[1,2,3]triazolo[4,5-b]pyridin-6-yl) (4,4-difluoropiperidin-1-yl)methanone] showed an IC50 of less than 100 nM.
In turn, `O=C(c1ccc2c(c1)nnn2-c1ccc(-c2ncn[nH]2)nc1)N1CCC(F)(F)CC1` [Compound C-9, (1-(6-(1H-1,2,4-triazol-5-yl)pyridin-3-yl)-1H-benzo[d][1,2,3]triazol-5-yl) (4,4-difluoropiperidin-1-yl)methanone] had an IC50 of 100 to 1000 nM.
`O=C(c1ccc2c(c1)nnn2-c1ccc(-c2ncn[nH]2)cc1)N1CCC(F)(F)CC1` [Compound C-10, (1-(4-(1H-1,2,4-triazol-5-yl)phenyl)-1H-benzo[d][1,2,3]triazol-5-yl) (4,4-difluoropiperidin-1-yl)methanone] came in with an IC50 of 100 to 1000 nM.
As for `O=C(O)c1ccc(-n2nnc3cc(C(=O)N4CCC(F)(F)CC4)ccc32)cc1` [Compound C-11, 4-(5-(4,4-difluoropiperidine-1-carbonyl)-1H-benzo[d][1,2,3]triazol-1-yl) benzoic acid], the IC50 lay in the range of 100 to 1000 nM.
For the compound `O=C(c1ccc2c(cnn2-c2ccc(-c3ncn[nH]3)nc2)c1)N1CCC(F)(F)CC1` [Compound C-12], the IC50 is less than 100 nM.
`O=C(c1ccc2c(cnn2-c2ccc(-c3ncn[nH]3)cc2)c1)N1CCC(F)(F)CC1` [Compound C-13] showed an IC50 of less than 100 nM.
In the case of `O=C(O)c1ccc(-n2ncc3cc(C(=O)N4CCC(F)(F)CC4)ccc32)cc1` [Compound C-14, 4-(5-(4,4-difluoropiperidine-1-carbonyl)-1H-indazol-1-yl) benzoic acid], the half-maximal inhibitory concentration (IC50) was less than 100 nM.
The compound `O=C(c1ccc2c(c1)ncn2-c1ccc(-c2ncn[nH]2)nc1)N1CCC(F)(F)CC1` [Compound C-15, (1-(6-(1H-1,2,4-triazol-5-yl)pyridin-3-yl)-1H-benzo[d]imidazol-5-yl)(4,4-difluoropiperidin-1-yl)methanone] returned an IC50 of 100 to 1000 nM.
With `O=C(c1ccc2c(c1)ncn2-c1ccc(-c2ncn[nH]2)cc1)N1CCC(F)(F)CC1` [Compound C-16, (1-(4-(1H-1,2,4-triazol-5-yl)phenyl)-1H-benzo[d]imidazol-5-yl)(4,4-difluoropiperidin-1-yl)methanone], the IC50 was less than 100 nM.
`O=C(O)c1ccc(-n2cnc3cc(C(=O)N4CCC(F)(F)CC4)ccc32)cc1` [Compound C-17, 4-(5-(4,4-difluoropiperidine-1-carbonyl)-1H-benzo[d]imidazol-1-yl) benzoic acid] registered an IC50 of less than 100 nM.
`C[C@H]1CCCN(C(=O)c2cnc3c(cnn3-c3ccc(-c4nnc[nH]4)nc3)c2)C1` [Compound C-20] registered an IC50 of less than 100 nM.
On to `C[C@H]1CCN(C(=O)c2cnc3c(cnn3-c3ccc(-c4nnc[nH]4)nc3)c2)C1` [Compound C-21], for which the IC50 was less than 100 nM.
On to `O=C(c1cnc2c(cnn2-c2ccc(-c3nnc[nH]3)nc2)c1)N1CC2CCCC2C1` (stereo not shown) [Compound C-22], for which the IC50 is less than 100 nM.
Under `CN(C)c1nc2ccc(-n3ncc4cc(C(=O)N5CCC(F)(F)CC5)cnc43)cn2n1` [Compound C-24] stands no less than 1000 nM.
In turn, `O=C(c1cnc2c(cnn2-c2ccc(-c3nnc[nH]3)cc2)c1)N1CCCC(F)(F)C1` [Compound C-31] returned a half-inhibitory concentration (IC50) of less than 100 nM.
As to `C[C@H]1CCCN(C(=O)c2cnc3c(cnn3-c3cncc(-c4nc[nH]n4)c3)c2)C1` [Compound C-34], the concentration for half-maximal inhibition (IC50) was less than 100 nM.
In turn, `C[C@H]1CCCN(C(=O)c2cnc3c(cnn3-c3cncc(C(N)=O)c3)c2)C1` [Compound C-35] had an IC50 of less than 100 nM.
As to `O=C(c1cnc2c(cnn2-c2cccc(-c3nnc[nH]3)c2)c1)N1CCC(F)(F)CC1` [Compound C-41, (1-(3-(4H-1,2,4-triazol-3-yl)phenyl)-1H-pyrazolo[3,4-b]pyridin-5-yl)(4,4-difluoropiperidin-1-yl)methanone], the IC50 was less than 100 nM.
Regarding `O=C(c1cnc2c(cnn2-c2ccc(-c3nnc[nH]3)cc2)c1)N1CC2CC2C1` (stereo not shown) [Compound C-42], the IC50 fell in the range of 100 to 1000 nM.
The compound `CCO[C@H]1CCN(C(=O)c2cnc3c(cnn3-c3ccc(-c4nnc[nH]4)cc3)c2)C1` [Compound C-43] showed a half-inhibitory concentration (IC50) of 100 to 1000 nM.
In the case of `CCO[C@@H]1CCN(C(=O)c2cnc3c(cnn3-c3ccc(-c4nnc[nH]4)cc3)c2)C1` [Compound C-44] it was no less than 1000 nM.
For the compound `C[C@@H]1CCN(C(=O)c2cnc3c(cnn3-c3ccc(-c4nnc[nH]4)cc3)c2)C1` [Compound C-46], the IC50 lay within 100 to 1000 nM.
Take `C[C@H]1CCN(C(=O)c2cnc3c(cnn3-c3ccc(-c4nnc[nH]4)cc3)c2)C1` [Compound C-47]: the concentration for half-maximal inhibition (IC50) was no less than 1000 nM.
In the case of `O=C(Nc1cccc(-n2ncc3cc(C(=O)N4CCC(F)(F)CC4)cnc32)c1)C1CC1` [Compound C-49], the IC50 fell in the range of 100 to 1000 nM.
`CC1(C)CCN(C(=O)c2cnc3c(cnn3-c3ccc(-c4nnc[nH]4)cc3)c2)C1` [Compound C-51] returned an IC50 of 100 to 1000 nM.
`CCOC(=O)Nc1cncc(-n2ncc3cc(C(=O)N4CCC[C@H](C(F)(F)F)C4)cnc32)c1` [Compound C-54] had an IC50 of 100 to 1000 nM.
The compound `O=C(c1cnc2c(cnn2-c2ccc(-c3nnc[nH]3)cc2)c1)N1CCCC(C(F)(F)F)C1` (stereo not shown) [Compound C-58] gave an IC50 of 100 to 1000 nM.
The compound `C[C@@H]1CN(C(=O)c2cnc3c(cnn3-c3cc(Cl)cc(-c4nnc[nH]4)c3)c2)CCO1` [Compound C-60] came in with an IC50 of less than 100 nM.
Compound `CC(F)(F)[C@H]1CCN(C(=O)c2cnc3c(cnn3-c3ccc(-c4nnc[nH]4)cc3)c2)C1` [Compound C-61] came in with an IC50 of less than 100 nM.
In the case of `O=C(c1cnc2c(cnn2-c2cc(Cl)cc(-c3nnc[nH]3)c2)c1)N1CCC(F)(F)CC1` [Compound C-62], the IC50 was less than 100 nM.
Turning to `O=C(c1cnc2c(cnn2-c2ccc(-c3nnc[nH]3)c(F)c2)c1)N1CCC(F)(F)CC1` [Compound C-63], the IC50 was less than 100 nM.
As to `O=C(c1cnc2c(cnn2-c2ccc(-c3nnc[nH]3)c(F)c2)c1)N1CCSCC1` [Compound C-64], the IC50 was less than 100 nM.
Turning to `CCOC(=O)Nc1cncc(-n2ncc3cc(C(=O)N4CC[C@H](C(C)(F)F)C4)cnc32)c1` [Compound C-65], the IC50 was in the range of 100 to 1000 nM.
`O=C(c1cnc2c(cnn2-c2cc(Cl)cc(-c3nnc[nH]3)c2)c1)N1CCSCC1` [Compound C-66, (1-(3-chloro-5-(4H-1,2,4-triazol-3-yl)phenyl)-1H-pyrazolo[3,4-b]pyridin-5-yl)(thiomorpholino)methanone]: the IC50 was less than 100 nM.
For the compound `O=C(c1cnc2c(cnn2-c2cc(Cl)cc(-c3nnc[nH]3)c2)c1)N1CC[S+]([O-])CC1` [Compound C-67], the IC50 was in the range of 100 to 1000 nM.
`O=C(c1cnc2c(cnn2-c2ccc(-c3nnc[nH]3)c(Cl)c2)c1)N1CCSCC1` [Compound C-68] returned an IC50 of less than 100 nM.
Under `O=C(c1cnc2c(cnn2-c2ccc(-c3nnc[nH]3)c(F)c2)c1)N1CC[S+]([O-])CC1` [Compound C-69] stands 100 to 1000 nM; under `O=C(c1cnc2c(cnn2-c2ccc(-c3nnc[nH]3)c(Cl)c2)c1)N1CC[S+]([O-])CC1` [Compound C-70], 100 to 1000 nM; under `COc1cc(-c2nnc[nH]2)cc(-n2ncc3cc(C(=O)N4CCC(F)(F)CC4)cnc32)c1` [Compound C-71], less than 100 nM.
Under `Cc1cc(-n2ncc3cc(C(=O)N4CCC(F)(F)CC4)cnc32)ccc1-c1nnc[nH]1` [Compound C-72] stands less than 100 nM; under `O=C(c1cnc2c(cnn2-c2ccc(-c3nnc[nH]3)cc2F)c1)N1CCC(F)(F)CC1` [Compound C-73], less than 100 nM.
